Test results taken from ChEMBL document CHEMBL1201862, “PubChem BioAssay data set” (2004).
The source made the active and inactive calls.

How the values were obtained:
[1] = biological target: T1, Ubiquitin-conjugating enzyme E2 N (Homo sapiens, UniProt P61088); assay type: functional;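 note: Dose-response confirmation in a TR-FRET assay detecting UBC13-driven polyubiquitin chain formation, inhibition measured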
T1 sequence (P61088 whole entry): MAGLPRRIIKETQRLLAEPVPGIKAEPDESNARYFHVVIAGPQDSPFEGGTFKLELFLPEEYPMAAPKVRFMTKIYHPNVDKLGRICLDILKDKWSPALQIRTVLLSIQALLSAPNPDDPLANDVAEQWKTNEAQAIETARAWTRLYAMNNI

[2] = biological target: T2, Acyl-homoserine lactone acylase PvdQ (Pseudomonas aeruginosa (strain LESB58), UniProt Q9I194); test: P. aeruginosa PvdQ acylase inhibitors, dose response, biochemical, fluorescence, plate reader and imaging, cherry-picks (AID 493231)
T2 sequence (Q9I194 whole entry): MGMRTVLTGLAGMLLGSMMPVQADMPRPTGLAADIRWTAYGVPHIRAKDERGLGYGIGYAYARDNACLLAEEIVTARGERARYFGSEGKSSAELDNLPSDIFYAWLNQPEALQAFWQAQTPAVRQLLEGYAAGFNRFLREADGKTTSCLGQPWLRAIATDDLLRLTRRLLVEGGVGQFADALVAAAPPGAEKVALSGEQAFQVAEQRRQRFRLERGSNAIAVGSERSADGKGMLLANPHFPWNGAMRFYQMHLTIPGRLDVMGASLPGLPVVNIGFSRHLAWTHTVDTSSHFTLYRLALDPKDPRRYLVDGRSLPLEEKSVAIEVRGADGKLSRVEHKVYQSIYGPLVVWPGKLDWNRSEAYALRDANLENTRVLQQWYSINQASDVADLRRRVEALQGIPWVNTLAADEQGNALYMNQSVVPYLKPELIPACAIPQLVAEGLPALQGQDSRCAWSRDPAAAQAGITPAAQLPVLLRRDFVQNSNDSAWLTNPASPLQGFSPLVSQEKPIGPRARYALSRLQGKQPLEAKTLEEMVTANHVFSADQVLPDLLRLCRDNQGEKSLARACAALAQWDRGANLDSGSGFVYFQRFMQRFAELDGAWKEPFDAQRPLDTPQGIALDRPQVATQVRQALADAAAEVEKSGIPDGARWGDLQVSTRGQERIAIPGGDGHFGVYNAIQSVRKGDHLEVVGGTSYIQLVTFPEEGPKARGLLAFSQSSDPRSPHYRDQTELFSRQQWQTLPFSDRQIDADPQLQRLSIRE

[3] = inhibitors of firefly luciferase expression or activity, dose response, H4 neuroglioma cells, luminescence (AID 1990); assay type: functional, cell-based
[4] = luciferase reporter signal reduction – luminescence, H4-C neuroglioblastoma cells, dose response (AID 2458); assay type: functional, cell-based;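 note: H4 neuroglioblastoma cells stably carrying a luciferase reporter gene fusion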
BJ [5] = test: cytotoxicity toward BJ-TERT fibroblasts, dose response, cell-based, RAS-independent, luminescence (AID 1933); assay type: functional; conditions: Homo sapiens
cells = assay type: functional, cell-based
[6] = inhibitors of SNCA 5'UTR-driven reporter translation, confirmation, H4 neuroglioma cells, luminescence (AID 1988); assay type: functional, cell-based
BJ [7] = test: cells; assay type: functional, cell-based; conditions: Homo sapiens
[8] = cytotoxicity toward DRD oncogenic fibroblasts, dose response, cell-based, non-viral oncogenic, luminescence (AID 1934); assay type: functional; conditions: Homo sapiens
[9] = inhibitors of SNCA 5'UTR-driven translation, confirmation, luminescence, H4 neuroglioblastoma cells, dose confirmation (AID 2454); assay type: functional, cell-based;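 note: H4 neuroglioblastoma cells carrying an alpha-synuclein 5'UTR luciferase reporter; potency for inhibition of the luciferase signal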
[10] = cytotoxicity in HEK-293T cells, dose response, cytotoxicity control for TCR NF-kB inhibitor project, luminescence, T-cell screen hits (AID 489026); assay type: functional, cell-based;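 note: cells exposed to compound about 14 hours before the viability readout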
CAAX prenyl protease 2 = biological target: T3, CAAX prenyl protease 2 (Homo sapiens, UniProt Q9Y256); test: human Rce1 protease inhibitors, dose response, biochemical, yeast membranes, quenched-peptide fluorescence, cherry-pick (AID 588849)
T3 sequence (Q9Y256 whole entry): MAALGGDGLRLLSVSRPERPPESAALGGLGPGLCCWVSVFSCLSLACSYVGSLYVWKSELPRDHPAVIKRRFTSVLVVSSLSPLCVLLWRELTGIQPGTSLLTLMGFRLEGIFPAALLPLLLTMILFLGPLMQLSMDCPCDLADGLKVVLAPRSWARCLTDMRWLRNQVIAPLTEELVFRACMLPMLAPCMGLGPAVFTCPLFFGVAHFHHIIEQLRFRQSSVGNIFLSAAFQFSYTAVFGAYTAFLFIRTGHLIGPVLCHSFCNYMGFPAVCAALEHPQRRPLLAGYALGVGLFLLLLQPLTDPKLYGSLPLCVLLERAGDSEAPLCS

Leucine aminopeptidase = biological target: T4, Leucine aminopeptidase (Plasmodium falciparum 3D7, UniProt Q8IL11); test: P. falciparum M17LAP inhibitors, primary screen, biochemical, fluorogenic H-Leu-NHMec substrate, 1536-well (AID 1619); assay type: functional
T4 sequence (Q8IL11 whole entry): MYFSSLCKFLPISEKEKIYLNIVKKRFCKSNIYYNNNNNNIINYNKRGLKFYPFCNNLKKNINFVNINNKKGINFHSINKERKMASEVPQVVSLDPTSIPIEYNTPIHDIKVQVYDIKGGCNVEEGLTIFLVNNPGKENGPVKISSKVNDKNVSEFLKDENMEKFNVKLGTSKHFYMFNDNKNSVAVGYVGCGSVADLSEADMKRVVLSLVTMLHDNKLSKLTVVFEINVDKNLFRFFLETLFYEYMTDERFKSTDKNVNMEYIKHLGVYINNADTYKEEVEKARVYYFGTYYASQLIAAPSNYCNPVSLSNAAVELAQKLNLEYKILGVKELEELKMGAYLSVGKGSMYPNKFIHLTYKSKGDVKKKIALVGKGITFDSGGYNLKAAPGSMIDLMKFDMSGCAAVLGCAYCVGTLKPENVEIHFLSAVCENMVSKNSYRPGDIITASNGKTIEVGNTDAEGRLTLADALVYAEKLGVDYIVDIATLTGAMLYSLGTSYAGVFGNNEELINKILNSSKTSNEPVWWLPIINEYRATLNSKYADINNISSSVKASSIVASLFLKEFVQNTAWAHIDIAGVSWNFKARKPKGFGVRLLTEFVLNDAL

Aspartyl aminopeptidase = biological target: T5, Aspartyl aminopeptidase (Plasmodium falciparum 3D7, UniProt Q8I2J3); test: Counterscreen for inhibitors of M1 and M17 aminopeptidases: QFRET-based biochemical high throughput dose response assay for inhibitors of the Plasmodium falciparum M18 Aspartyl Aminopeptidase (PFM18AAP). [Related PubChem assays: 1619 (Screening assay (M17LAP inhibitors).), 1445 (Screening assay (M1AAP inhibitors).)]
T5 sequence (Q8I2J3 whole entry): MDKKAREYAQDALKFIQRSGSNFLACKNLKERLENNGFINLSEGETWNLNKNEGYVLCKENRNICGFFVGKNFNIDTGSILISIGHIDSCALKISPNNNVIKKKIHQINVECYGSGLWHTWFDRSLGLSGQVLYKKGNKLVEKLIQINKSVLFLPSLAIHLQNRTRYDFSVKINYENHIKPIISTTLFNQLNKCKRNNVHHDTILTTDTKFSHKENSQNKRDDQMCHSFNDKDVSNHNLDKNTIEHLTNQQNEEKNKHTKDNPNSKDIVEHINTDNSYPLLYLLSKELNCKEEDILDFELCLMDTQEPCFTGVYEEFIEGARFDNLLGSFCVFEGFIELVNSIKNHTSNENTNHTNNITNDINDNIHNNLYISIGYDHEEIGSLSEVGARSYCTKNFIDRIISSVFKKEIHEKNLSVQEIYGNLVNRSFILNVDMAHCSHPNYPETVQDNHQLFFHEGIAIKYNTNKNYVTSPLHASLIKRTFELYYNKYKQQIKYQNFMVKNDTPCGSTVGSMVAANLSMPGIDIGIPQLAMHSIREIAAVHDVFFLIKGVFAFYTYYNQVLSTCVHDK

Procathepsin L = Procathepsin L (Homo sapiens, UniProt P07711); test: cathepsin L inhibitors, dose response, counter-screen for M1/M17 aminopeptidase inhibitor project, biochemical, QFRET, 1536-well (AID 2214)
[11] = A cytotoxicity screen of small molecule inhibitors of the PhoP region in Salmonella typhi identified in the primary screen. [Related pubchem assays: 1850, 1864, 1985 ]; assay type: functional
[12] = biological target: Eukaryotic translation initiation factor 4E (Mus musculus, UniProt P63073); test: eIF4E–eIF4G protein interaction inhibitors, dose response, biochemical, TR-FRET (AID 855); assay type: functional;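 note: potency for disrupting eIF4E binding to eIF4GI seen as loss of FRET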
Sequence of Eukaryotic translation initiation factor 4E (P63073 whole entry): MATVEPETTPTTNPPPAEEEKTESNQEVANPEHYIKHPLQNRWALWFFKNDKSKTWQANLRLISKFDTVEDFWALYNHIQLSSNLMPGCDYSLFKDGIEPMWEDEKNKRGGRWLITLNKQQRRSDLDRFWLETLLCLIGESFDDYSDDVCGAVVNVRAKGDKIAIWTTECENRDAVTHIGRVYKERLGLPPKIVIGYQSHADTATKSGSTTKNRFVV

Sequence of Procathepsin L (P07711 whole entry): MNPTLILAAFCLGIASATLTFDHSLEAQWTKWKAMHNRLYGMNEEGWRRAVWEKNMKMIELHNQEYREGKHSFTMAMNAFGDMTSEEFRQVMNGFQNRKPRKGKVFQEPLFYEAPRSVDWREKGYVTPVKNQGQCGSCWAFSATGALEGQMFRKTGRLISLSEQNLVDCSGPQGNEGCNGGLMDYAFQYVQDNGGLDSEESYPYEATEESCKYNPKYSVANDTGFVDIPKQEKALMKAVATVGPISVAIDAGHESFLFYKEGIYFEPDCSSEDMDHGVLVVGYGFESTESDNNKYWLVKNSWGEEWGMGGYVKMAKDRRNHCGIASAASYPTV

SMILES: COc1cccc(Cn2cnc3c([N+](=O)[O-])c(C)c(C)cc32)c1
- IC50 [1]: > 20000 nM (inactive)

SMILES: Cc1cc(NC(=O)c2cc([N+](=O)[O-])ccc2Cl)no1
- AC50 [2]: 3710 nM (active)

SMILES: COc1ccccc1-c1nnc2sc(-c3ccc(N(C)C)cc3)nn12
- EC50 [3]: < 100 nM (active)
- EC50 [4]: 143 nM (active)
- EC50 (BJ [5]): 179 nM (active)
- EC50 (cells): 290 nM (active)
- EC50 [6]: < 100 nM (active)
- EC50 (BJ [7]): 637 nM (active)
- EC50 [8]: 202 nM (active)
- EC50 [9]: 179 nM (active)
- IC50 [10]: > 80000 nM (inactive)
- AC50 (CAAX prenyl protease 2): 1020 nM (active)

SMILES: CCOc1ccc(C(=O)Nc2cccc(C)n2)cc1
- AC50 [2]: 19300 nM (active)

SMILES: COc1ccc(NC(=O)CSc2nc(O)cc(=O)n2C)cc1
- IC50 (Leucine aminopeptidase): 2590 nM (active)
- IC50 (Aspartyl aminopeptidase): > 73500 nM (not active)
- IC50 (Procathepsin L): > 59600 nM (not active)

SMILES: CCOc1ccc(C2CC(=O)NC(SCC(=O)OC)=C2C#N)cc1 (centres undefined)
- EC50 [11]: > 50000 nM (active)

SMILES: O=C(CSc1nnc(-c2ccccc2)n1-c1ccc(Cl)cc1)NC1CCS(=O)(=O)C1 (centres undefined)
- EC50 [11]: > 50000 nM (active)

SMILES: O=C1OC(c2ccccc2)=C/C1=C\c1ccc(-c2ccc([N+](=O)[O-])cc2)o1
- IC50 [12]: 50000 nM (inactive)
